Source: patent US10988465B2, “CXCR4 inhibitors and uses thereof” (X4 Pharmaceuticals, Inc., priority 2016, dated 2021)

How the values were obtained:
in vitro = conditions: human, Caco-2, pH 7.4
Procedure: Example 37: Caco-2 Permeability Assay
The goal of this assay was to evaluate the intestinal absorption potential of drug candidates using Caco-2 cell lines.
HBSS buffer with 0.3% DMSO and 5 μM LY: add 150 μL DMSO and 50 μL LY (5 mM) into 50 ml HBSS buffer (pH 7.4).
HBSS buffer with 0.1% DMSO and 5 μM LY: add 50 μL DMSO and 50 μL LY (5 mM) into 50 mL HBSS buffer (pH 7.4).
HBSS buffer with 0.3% DMSO: add 150 μL DMSO into 50 ml HBSS buffer (pH 7.4).
HBSS buffer with 0.1% DMSO: add 50 μL DMSO into 50 ml HBSS buffer (pH 7.4).
Prepare HBSS buffer with 0.4% DMSO: add 200 μL DMSO into 50 ml HBSS buffer (pH 7.4).
Prepare HBSS buffer with 0.4% DMSO and 5 μM LY: add 200 μL DMSO and 50 μL LY (5 mM) into 50 ml HBSS buffer (pH 7.4).
4. Measure TEER Take cell culture plate out of incubator, wash the cell monolayers with HBSS buffer, and then measure TEER values at Rm temperature. 5. Centrifuge Centrifuge the compound solution (from step 3) at 4000 rpm for 5 min before loading to donor chambers. 6. Dosing Add solution based on the volumes listed in the following table (make sure to take extra 100 μL of donor sample for T0 as Backup).
7. Apical LYT0 samples To determine LY concentration in the apical chember, take 100 μL sample from apical chambers into an opaque plate for LYT0. 8. Prewarm Prewarm apical and basolateral plates at 37° C. for about 5 min, then begin transport by placing the apical plate onto basolateral plate. 9. Incubation Keep the plates in incubator at 37° C. for 90 min. 10. Standard Curve preparation
11. Transport termination Separate the apical plate from the basolateral plate after 90-min incubation.
Receiver sample: 60 μL of receiver sample+60 μL ACN with IS (Osalmid or Imipramine)
Study details: Test concentration 10 μM
Test systems: Caco-2/HBSS solution
Incubation conditions: 0, 90 min at 37° C.
Sample size: Duplicates (n=2)
Bioanalytical method: LC-MS/MS
For Millicell-24 Cell Culture Plates: surface area of the membrane=0.7 cm^2, VA=0.8 mL (A-to-B) or 0.4 mL (B-to-A)
1. Papp values were calculated based on calculated concentrations.
The compound numbers correspond to the compound numbers in Table 1.

[1] = biological target: T1, CXCR-4 transfected U87 cell line (U87.CXCR4) (Homo sapiens, UniProt P61073); test: Intracellular CXCL-12-induced calcium mobilization assay (FLIPR); assay type: cell-based; conditions: U87.CXCR4 cells; CXCL-12 25-50 ng/mL; compound added 15 min before; read-out: IC50 CXCL-12 Ca^2+ flux U87.CXCR4+
T1 construct: expressed in transfected cells; host or cells: U87 (U87.CXCR4)
Procedure: Example 36: REGA Screening Assay
Intracellular CXCL-12-Induced Calcium Mobilization Assay
Intracellular calcium mobilization induced by chemokines or chemokine-derived peptides were evaluated using a calcium responsive fluorescent probe and a FLIPR system. The CXCR-4 transfected U87 cell line (U87.CXCR4) cells were seeded in gelatine-coated black-wall 96-well plates at 20,000 cells per well and incubated for 12 hours. Cells were then loaded with the fluorescent calcium probe Fluo-2 acetoxymethyl at 4 μM final concentration in assay buffer (Hanks' balanced salt solution with 20 mM HEPES buffer and 0.2% bovine serum albumin, pH 7.4) for 45 min at 37° C. The intracellular calcium mobilization induced by the CXCL-12 (25-50 ng/mL) was then measured at 37° C. by monitoring the fluorescence as a function of time in all the wells simultaneously using a fluorometric imaging plate reader (FLIPR Tetra, Molecular Devices).

[2] = biological target: T2, Jurkat cells expressing CXCR4 (Homo sapiens, UniProt P61073); test: Chemokine (CXCL12-AF647) binding inhibition assay; conditions: CXCL12-AF647 25 ng/mL, read-out: IC50 CXCL-12 binding Jurkat
T2 construct: endogenous in cells; host or cells: Jurkat
Procedure: Chemokine (CXCL12-AF647) Binding Inhibition Assay
Jurkat cells expressing CXCR4 were washed once with assay buffer (Hanks' balanced salt solution with 20 mM HEPES buffer and 0.2% bovine serum albumin, pH 7.4) and then incubated for 15 min at room temperature with the test compounds diluted in assay buffer at dose-dependent concentrations. Subsequently, CXCL12-AF647 (25 ng/mL) was added to the compound-incubated cells. The cells were incubated for 30 min at room temperature. Thereafter, the cells were washed twice in assay buffer, fixed in 1% paraformaldehyde in PBS, and analyzed on the FL4 channel of a FACSCalibur flow cytometer equipped with a 635-nm red diode laser (Becton Dickinson, San Jose, Calif., USA).
The percentages of inhibition of CXCL12-AF647 binding were calculated according to the formula: [1−((MFI−MFINC)/(MFIPC−MFINC))]×100 where MFI is the mean fluorescence intensity of the cells incubated with CXCL12-AF647 in the presence of the inhibitor, MFINC is the mean fluorescence intensity measured in the negative control (i.e., autofluorescence of unlabeled cells), and MFIPC is the mean fluorescence intensity of the positive control (i.e., cells exposed to CXCL12-AF647 alone).

T2 sequence (P61073 whole entry): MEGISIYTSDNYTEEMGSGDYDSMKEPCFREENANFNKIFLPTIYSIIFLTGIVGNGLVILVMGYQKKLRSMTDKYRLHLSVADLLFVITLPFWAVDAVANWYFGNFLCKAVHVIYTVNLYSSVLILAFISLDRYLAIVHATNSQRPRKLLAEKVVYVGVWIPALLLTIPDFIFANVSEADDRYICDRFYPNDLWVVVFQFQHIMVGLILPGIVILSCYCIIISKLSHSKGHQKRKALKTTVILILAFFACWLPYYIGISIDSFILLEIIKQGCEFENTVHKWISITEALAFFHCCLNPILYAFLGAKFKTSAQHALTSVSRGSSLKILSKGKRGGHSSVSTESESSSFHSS
T1 sequence (P61073 whole entry): as above

| SMILES | Papp A→B at 90 min, 10 μM (in vitro) [×10⁻⁶ cm/s] | Papp B→A at 90 min, 10 μM (in vitro) [×10⁻⁶ cm/s] | efflux ratio at 90 min, 10 μM (in vitro) | IC50 [1] [nM] | IC50 [2] [nM] |
| --- | --- | --- | --- | --- | --- |
| CN1CCN(c2cccc3nc([C@H]4CCC[C@@H](c5ncccc5C(F)(F)F)N4C)[nH]c23)CC1 (relative stereo) [I-58] | 10 to 30 | 10 to 30 | 0.1 to 10 | ≥ 1000 | 0.01 to 100 |
| CCN1CCN(c2cccc3nc([C@H]4CCC[C@@H](c5ncccc5C(F)(F)F)N4C)[nH]c23)CC1 (relative stereo) [I-59] |  |  |  | ≥ 1000 | 0.01 to 100 |
| Cc1cccnc1[C@@H]1CCC[C@H](c2nc3cccc(N4CCN(C)CC4)c3[nH]2)N1C (single isomer, unassigned) [I-3a] | 0.1 to 10 | 0.1 to 10 |  | 0.01 to 100 | 0.01 to 100 |
| Cc1cccnc1[C@H]1CCC[C@@H](c2nc3cccc(N4CCN(C)CC4)c3[nH]2)N1C (single isomer, unassigned) [I-3b] | 0.1 to 10 | 0.1 to 10 |  | 0.01 to 100 | 0.01 to 100 |
| CN1CCN(c2cccc3nc([C@H]4CCC[C@@H](c5ncccc5C5CC5)N4C)[nH]c23)CC1 (stereo in doubt) [I-61] | 10 to 30 | 10 to 30 | 0.1 to 10 | 0.01 to 100 | 0.01 to 100 |
| CN1CCN(c2cccc3nc([C@H]4CCC[C@@H](c5nccn6cccc56)N4C)[nH]c23)CC1 (stereo in doubt) [I-90] | 10 to 30 | 10 to 30 | 0.1 to 10 | 100 to 1000 | 0.01 to 100 |
| Cc1cccnc1[C@@H]1CCCC(c2nccn2CCCc2ccccn2)N1 (stereo in doubt) [I-178] |  |  |  | ≥ 1000 | 100 to 1000 |
| Cc1cccnc1[C@@H]1CCC[C@H](c2nc3ccccc3n2CCc2ccccn2)N1C [I-8, 2-((2R,6S)-1-methyl-6-(3-methylpyridin-2-yl)piperidin-2-yl)-1-(2-(pyridin-2-yl)ethyl)-1H-benzo[d]imidazole] |  |  |  | ≥ 1000 | 100 to 1000 |
| CN1CCN(c2cccc3nc([C@H]4CCC[C@@H](c5ncccc5C#N)N4C)[nH]c23)CC1 [I-10, 2-((2S,6R)-1-methyl-6-(7-(4-methylpiperazin-1-yl)-1H-benzo[d]imidazol-2-yl)piperidin-2-yl)nicotinonitrile] | 10 to 30 | 10 to 30 | 0.1 to 10 | ≥ 1000 | 100 to 1000 |
| Cc1cccnc1[C@@H]1CCC[C@H](c2nc3cccc(C4CCNCC4)c3[nH]2)N1C [I-11, 2-((2R,6S)-1-methyl-6-(3-methylpyridin-2-yl)piperidin-2-yl)-7-(piperidin-4-yl)-1H-benzo[d]imidazole] | 0.1 to 10 | 10 to 30 | > 30 | 0.01 to 100 | 0.01 to 100 |
| CN1CCN(c2cccc3nc([C@H]4CCC[C@@H](c5ncccc5Cl)N4)n(C)c23)CC1 [I-124] |  |  |  | 0.01 to 100 | 0.01 to 100 |
| Cc1cccc(F)c1[C@@H]1CCC[C@H](c2nc3cccc(N4CCN(C)CC4)c3[nH]2)N1C [I-138] |  |  |  | ≥ 1000 | ≥ 1000 |
| COCCc1ccc(OCC(O)CNC(C)C)cc1 (stereo not drawn) [Metoprolol, reference compound] | > 10 | > 10 |  |  |  |

Continued, values first:

| Papp A→B at 90 min, 10 μM (in vitro) [×10⁻⁶ cm/s] | Papp B→A at 90 min, 10 μM (in vitro) [×10⁻⁶ cm/s] | efflux ratio at 90 min, 10 μM (in vitro) | IC50 [1] [nM] | IC50 [2] [nM] | SMILES |
| --- | --- | --- | --- | --- | --- |
| 0.1 to 10 | 0.1 to 10 | 10 to 30 | 100 to 1000 | 0.01 to 100 | Cc1cccnc1[C@@H]1CCC[C@H](c2nc3ccccc3[nH]2)N1CCCCN [I-1, 4-((2R,6S)-2-(1H-benzo[d]imidazol-2-yl)-6-(3-methylpyridin-2-yl)piperidin-1-yl)butan-1-amine] |
| 0.1 to 10 | 10 to 30 | > 30 | 0.01 to 100 | 0.01 to 100 | Cc1cccnc1[C@@H]1CCC[C@H](c2nc3ccccc3n2CCCN)N1C [I-2, 3-(2-((2R,6S)-1-methyl-6-(3-methylpyridin-2-yl)piperidin-2-yl)-1H-benzo[d]imidazol-1-yl)propan-1-amine] |
|  |  |  | 0.01 to 100 | 0.01 to 100 | Cc1cccnc1[C@@H]1CCC[C@H](c2nc3ccccc3n2CCCCN)N1C [I-4, 4-(2-((2R,6S)-1-methyl-6-(3-methylpyridin-2-yl)piperidin-2-yl)-1H-benzo[d]imidazol-1-yl)butan-1-amine] |
| 0.1 to 10 | 0.1 to 10 | 0.1 to 10 | 0.01 to 100 | 0.01 to 100 | Cc1cccnc1[C@@H]1CCC[C@H](c2nc3ccccc3n2CCCN(C)C)N1C [I-5, N,N-dimethyl-3-(2-((2R,6S)-1-methyl-6-(3-methylpyridin-2-yl)piperidin-2-yl)-1H-benzo[d]imidazol-1-yl)propan-1-amine] |
|  |  |  | 100 to 1000 | 0.01 to 100 | Cc1cccnc1[C@@H]1CCC[C@H](c2nc3ccccc3n2CCn2ccnc2)N1C [I-6, 1-(2-(1H-imidazol-1-yl)ethyl)-2-((2R,6S)-1-methyl-6-(3-methylpyridin-2-yl)piperidin-2-yl)-1H-benzo[d]imidazole] |
| 10 to 30 | 10 to 30 | 0.1 to 10 | ≥ 1000 | 0.01 to 100 | Cc1cccnc1[C@@H]1CCC[C@H](c2nc3ccccc3n2CCn2cccn2)N1C [I-7, 1-(2-(1H-pyrazol-1-yl)ethyl)-2-((2R,6S)-1-methyl-6-(3-methylpyridin-2-yl)piperidin-2-yl)-1H-benzo[d]imidazole] |
| 0.1 to 10 | 10 to 30 | 10 to 30 | 0.01 to 100 | 0.01 to 100 | Cc1cccnc1[C@@H]1CCC[C@H](c2nc3ccccc3n2CC2CCCNC2)N1C (stereo partly drawn) [I-12, 2-((2R,6S)-1-methyl-6-(3-methylpyridin-2-yl)piperidin-2-yl)-1-(piperidin-3-ylmethyl)-1H-benzo[d]imidazole] |
|  |  |  | 100 to 1000 | 0.01 to 100 | Cc1cccnc1[C@@H]1CCC[C@H](c2nc3ccccc3n2CCCO)N1C [I-20, 3-(2-((2R,6S)-1-methyl-6-(3-methylpyridin-2-yl)piperidin-2-yl)-1H-benzo[d]imidazol-1-yl)propan-1-ol] |
|  |  |  | ≥ 1000 | 100 to 1000 | Cc1cccnc1[C@@H]1CCC[C@H](c2nc3cccc(Oc4cccnc4)c3[nH]2)N1C [I-77] |
|  |  |  | ≥ 1000 | ≥ 1000 | Cc1cccnc1[C@@H]1CCC[C@H](c2nc3cccc(Oc4ccncc4)c3[nH]2)N1C [I-78] |
|  |  |  | ≥ 1000 | 100 to 1000 | Cc1cccnc1[C@@H]1CCC[C@H](c2nc3ccccc3n2CCCO)N1 [I-156] |
|  |  |  | ≥ 1000 | 0.01 to 100 | COCCCn1c([C@H]2CCC[C@@H](c3ncccc3C)N2C)nc2ccccc21 [I-157] |
